Earlier results, collected in patent US6723737B1 (priority 1999, dated 2004).

Assays:
[1] = test system: genetically obese experimental animals
young men = details: after caffeine ingestion, statistically significant

Structure (SMILES)	weight loss [1]	levels of free fatty acids (young men)
Cn1c(=O)c2c(ncn2C)n(C)c1=O [caffeine, 1,3,7-trimethylxanthine]	did not produce weight loss	increased the levels of free fatty acids
Cn1c(=O)c2[nH]cnc2n(C)c1=O [theophylline, 1,3-dimethylxanthine]	did not produce weight loss	–
